# Test results as given in PubChem BioAssay AID1919005 (Molecular Pharmacology Branch, DTP, NCI, 2023).
# “And” between values parts separate entries of the source, which are not always exact repeats. Equal values may be shown once.
# System: 855422-203-R-J1-PDC complex spheroid growth
# Assay: Anticancer human tumor 855422-203-R-J1-PDC patient-derived bladder carcinoma cell line growth inhibition [AhR]
# Settings: for viability, T/C: stronger effect = lower value
# How it was run: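 Spheroids combined tumor cells with HUVEC endothelial cells and human MSCs as stroma. AhR antagonists were paired with standard or investigational drugs, each dosed in half-log steps down from near clinical Cmax, or from 10 microM where Cmax was unknown.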
# [1] = curve of first compound, second compound 0.1 µM
# [2] = curve of first compound, second compound 0.316 µM
# [3] = curve of first compound, second compound 1 µM
# [4] = curve of first compound, second compound 3.16 µM
# [5] = curve of first compound, second compound 10 µM
# [6] = second compound 0.1 µM, first compound 0.0316 µM
# [7] = second compound 0.1 µM, first compound 0.1 µM
# [8] = second compound 0.1 µM, first compound 0.316 µM
# [9] = second compound 0.1 µM, first compound 1 µM
# [10] = second compound 0.316 µM, first compound 0.0316 µM
# [11] = second compound 0.316 µM, first compound 0.1 µM
# [12] = second compound 0.316 µM, first compound 0.316 µM
# [13] = second compound 0.316 µM, first compound 1 µM
# [14] = second compound 1 µM, first compound 0.0316 µM
# [15] = second compound 1 µM, first compound 0.1 µM
# [16] = second compound 1 µM, first compound 0.316 µM
# [17] = second compound 1 µM, first compound 1 µM
# [18] = second compound 3.16 µM, first compound 0.0316 µM
# [19] = second compound 3.16 µM, first compound 0.1 µM
# [20] = second compound 3.16 µM, first compound 0.316 µM
# [21] = second compound 3.16 µM, first compound 1 µM
# [22] = second compound 10 µM, first compound 0.0316 µM
# [23] = second compound 10 µM, first compound 0.1 µM
# [24] = second compound 10 µM, first compound 0.316 µM
# [25] = second compound 10 µM, first compound 1 µM
# 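Also: spheroids exposed to agents for seven days before readout.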
# 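For viability, T/C in this document: percent of DMSO vehicle control luminescence viability.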
smiles,measurement,setting,value
Nc1ncn(C2CC(O)C(CO)S2)c(=O)n1 (configuration not stated) + Cc1ccccc1N=Nc1ccc(NC(=O)c2ccnn2C)c(C)c1,IC50,[1],> 300 nM
same,IC50,[2],> 300 nM
same,IC50,[3],> 300 nM
same,IC50,[4],> 300 nM
same,IC50,[5],> 300 nM
same,"viability, T/C","second compound 0.1 µM, first compound 0.000949 µM",99.8%
same,"viability, T/C","second compound 0.1 µM, first compound 0.003 µM",94.9%
same,"viability, T/C","second compound 0.1 µM, first compound 0.00949 µM",98%
same,"viability, T/C","second compound 0.1 µM, first compound 0.03 µM",95.9%
same,"viability, T/C","second compound 0.1 µM, first compound 0.0949 µM",97%
same,"viability, T/C","second compound 0.1 µM, first compound 0.3 µM",93.8%
same,"viability, T/C","second compound 0.316 µM, first compound 0.000949 µM",104%
same,"viability, T/C","second compound 0.316 µM, first compound 0.003 µM",97.7%
same,"viability, T/C","second compound 0.316 µM, first compound 0.00949 µM",97.7%
same,"viability, T/C","second compound 0.316 µM, first compound 0.03 µM",99.8%
same,"viability, T/C","second compound 0.316 µM, first compound 0.0949 µM",95.4%
same,"viability, T/C","second compound 0.316 µM, first compound 0.3 µM",101%
same,"viability, T/C","second compound 1 µM, first compound 0.000949 µM",100%
same,"viability, T/C","second compound 1 µM, first compound 0.003 µM",100%
same,"viability, T/C","second compound 1 µM, first compound 0.00949 µM",92.5%
same,"viability, T/C","second compound 1 µM, first compound 0.03 µM",98.2%
same,"viability, T/C","second compound 1 µM, first compound 0.0949 µM",98%
same,"viability, T/C","second compound 1 µM, first compound 0.3 µM",92.6%
same,"viability, T/C","second compound 3.16 µM, first compound 0.000949 µM",98.9%
same,"viability, T/C","second compound 3.16 µM, first compound 0.003 µM",87.2%
same,"viability, T/C","second compound 3.16 µM, first compound 0.00949 µM",90.2%
same,"viability, T/C","second compound 3.16 µM, first compound 0.03 µM",86.3%
same,"viability, T/C","second compound 3.16 µM, first compound 0.0949 µM",93.7%
same,"viability, T/C","second compound 3.16 µM, first compound 0.3 µM",84.5%
same,"viability, T/C","second compound 10 µM, first compound 0.000949 µM",87.6%
same,"viability, T/C","second compound 10 µM, first compound 0.003 µM",80.8%
same,"viability, T/C","second compound 10 µM, first compound 0.00949 µM",82%
same,"viability, T/C","second compound 10 µM, first compound 0.03 µM",90.3%
same,"viability, T/C","second compound 10 µM, first compound 0.0949 µM",91.4%
same,"viability, T/C","second compound 10 µM, first compound 0.3 µM",78%
O=C(C=Cn1cnc(-c2cc(C(F)(F)F)cc(C(F)(F)F)c2)n1)NNc1cnccn1,"viability, T/C",compound 0.00949 µM,110% and 118% and 112%
same,"viability, T/C",compound 0.03 µM,105% and 125% and 130%
same,"viability, T/C",compound 0.0949 µM,164% and 169% and 162%
same,"viability, T/C",compound 0.3 µM,41.3% and 95.5% and 51.4%
same,"viability, T/C",compound 0.949 µM,29.9% and 55.1% and 35%
same,"viability, T/C",compound 3 µM,20.7% and 42.1% and 27.6%
same,IC50,curve of compound,267 nM and 917 nM and 327 nM
Nc1ncn(C2CC(O)C(CO)O2)c(=O)n1 (configuration not stated) + Cc1ccccc1N=Nc1ccc(NC(=O)c2ccnn2C)c(C)c1,IC50,[1],> 1000 nM
same,IC50,[2],> 1000 nM
same,IC50,[3],> 1000 nM
same,IC50,[4],> 1000 nM
same,IC50,[5],> 1000 nM
same,"viability, T/C","second compound 0.1 µM, first compound 0.00316 µM",94.4%
same,"viability, T/C","second compound 0.1 µM, first compound 0.01 µM",98.1%
same,"viability, T/C",[6],93.4%
same,"viability, T/C",[7],98.2%
same,"viability, T/C",[8],93.5%
same,"viability, T/C",[9],86.4%
same,"viability, T/C","second compound 0.316 µM, first compound 0.00316 µM",102%
same,"viability, T/C","second compound 0.316 µM, first compound 0.01 µM",104%
same,"viability, T/C",[10],103%
same,"viability, T/C",[11],94.4%
same,"viability, T/C",[12],93%
same,"viability, T/C",[13],82.8%
same,"viability, T/C","second compound 1 µM, first compound 0.00316 µM",106%
same,"viability, T/C","second compound 1 µM, first compound 0.01 µM",98.5%
same,"viability, T/C",[14],94%
same,"viability, T/C",[15],93%
same,"viability, T/C",[16],87.2%
same,"viability, T/C",[17],89%
same,"viability, T/C","second compound 3.16 µM, first compound 0.00316 µM",97.4%
same,"viability, T/C","second compound 3.16 µM, first compound 0.01 µM",96.3%
same,"viability, T/C",[18],94.9%
same,"viability, T/C",[19],92.9%
same,"viability, T/C",[20],85.7%
same,"viability, T/C",[21],83.5%
same,"viability, T/C","second compound 10 µM, first compound 0.00316 µM",84.7%
same,"viability, T/C","second compound 10 µM, first compound 0.01 µM",82.1%
same,"viability, T/C",[22],84.3%
same,"viability, T/C",[23],84.3%
same,"viability, T/C",[24],78%
same,"viability, T/C",[25],76%
COc1cc(Nc2ncc3c(n2)-c2ccc(Cl)cc2C(c2c(F)cccc2OC)=NC3)ccc1C(=O)O + Cc1cncc(-c2nc(NCCc3c[nH]c4ccccc34)c3ncn(C(C)C)c3n2)c1,IC50,[1],> 10000 nM
same,IC50,[2],> 10000 nM
same,IC50,[3],987 nM
same,IC50,[4],995 nM
same,IC50,[5],< 31.6 nM
same,"viability, T/C",[6],104%
same,"viability, T/C",[7],101%
same,"viability, T/C",[8],61.5%
same,"viability, T/C",[9],55%
same,"viability, T/C","second compound 0.1 µM, first compound 3.16 µM",50.6%
same,"viability, T/C","second compound 0.1 µM, first compound 10 µM",45.4%
same,"viability, T/C",[10],98.7%
same,"viability, T/C",[11],94.8%
same,"viability, T/C",[12],61.4%
same,"viability, T/C",[13],52.4%
same,"viability, T/C","second compound 0.316 µM, first compound 3.16 µM",52.5%
same,"viability, T/C","second compound 0.316 µM, first compound 10 µM",50.7%
same,"viability, T/C",[14],99%
same,"viability, T/C",[15],90.5%
same,"viability, T/C",[16],63.2%
same,"viability, T/C",[17],49.3%
same,"viability, T/C","second compound 1 µM, first compound 3.16 µM",48.6%
same,"viability, T/C","second compound 1 µM, first compound 10 µM",48.2%
same,"viability, T/C",[18],82.8%
same,"viability, T/C",[19],75.9%
same,"viability, T/C",[20],59.7%
same,"viability, T/C",[21],48.6%
same,"viability, T/C","second compound 3.16 µM, first compound 3.16 µM",52.2%
same,"viability, T/C","second compound 3.16 µM, first compound 10 µM",44.8%
same,"viability, T/C",[22],27.9%
same,"viability, T/C",[23],26.7%
same,"viability, T/C",[24],14.8%
same,"viability, T/C",[25],11.4%
same,"viability, T/C","second compound 10 µM, first compound 3.16 µM",22.5%
same,"viability, T/C","second compound 10 µM, first compound 10 µM",26.4%
